From article PMC11466185, “Mechanisms and efficacy of small molecule latency-promoting agents to inhibit HIV reactivation ex vivo” (JCI Insight, 2024)
“And” between values parts separate entries of the source, which are not always exact repeats. Equal values may be shown once.

What was measured:
PBMCs = experiment: Total number of live cells (proliferation) by trypan blue staining at day 6; type: cell-based, human; conditions: for Fig 6B: total live cells relative to DMSO+CD3/28: DMSO+CD3/28 = 100
Protocol: Some of our candidate LPAs can block the effects of T cell activation, which could affect T cell proliferation. Therefore, we evaluated the extent to which variations in the level of infected cells may contribute to reductions in different HIV RNA transcripts. We measured the total number of viable cells (as a measure of proliferation) and the conserved U3-U5 LTR HIV DNA region (as a measure of total infection frequency) at day 6.
(A) After 6 days, the total number of live cells was measured by trypan blue staining and then normalized to the levels of the activated DMSO (% of activated DMSO). All conditions were tested in the presence of CD3^+/CD28^+ T cell–activating beads, except for the unactivated DMSO condition. Bars indicate medians, and different colors indicate individual study participants. Comparisons were performed using Wilcoxon’s signed-rank test. (B) Total cellular DNA was extracted, and the levels of U3-U5 HIV DNA were measured to quantify infection frequency at 6 days. HIV DNA levels were normalized to copies per 10^6 cells using the input of cellular DNA (assuming 1 μg of total DNA corresponds to 160,000 cells) and then normalized to the activated DMSO control (% of activated DMSO). Bars indicate medians, and different colors indicate individual study participants.

[1] = system: HIV transcripts (TAR, LLTR, Pol, PolyA, TatRev); experiment: Latency reversal assay: cell-associated HIV transcripts (RT-ddPCR) 24 hours after anti-CD3/CD28 activation of PBMCs from ART-suppressed PWH; type: cell-based; set-up: key to TatRev: % of activated DMSO control, normalized to 1 μg total RNA; Elongated (LLTR) HIV transcripts, median relative to activated DMSO, initial screening / Midtranscribed (Pol) HIV transcripts, median relative to activated DMSO, initial screening / Multiply spliced (TatRev) HIV transcripts, median relative to activated DMSO, initial screening: concentration or dose not given beside the values; conditions: for Pol HIV transcripts (DMSO αCD3/28 = 100) / PolyA HIV transcripts (DMSO αCD3/28 = 100) / TatRev HIV transcripts (DMSO αCD3/28 = 100): αCD3/28-activated, ruxolitinib 4μM, triptolide 25-50nM, alvocidib 40nM, dinaciclib 8nM, AZD4573 8nM, quercetin 5μM, pladienolide B 10nM, isoginkgetin 25μM, herboxidiene 5nM, KRIBB11 2.5μM, tanespimycin 5μM, mithramycin A 25nM; for PolyA/LLTR / TatRev/PolyA / LLTR/TAR: DMSO+CD3/28 = 1, Fig 3B, C and D; for PolyA / TatRev: DMSO+αCD3/28 = 100, Fig 3A
Protocol: We selected 26 small molecules targeting pathways implicated in HIV transcription or the blocks to HIV transcription underlying latency (Supplemental Table 1). […] Initial screening of all drugs was performed in freshly isolated PBMCs from 2 ART-suppressed individuals (Figure 1 and Supplemental Figure 2). PBMCs were cultured in the presence of individual drugs in DMSO or DMSO alone as a control, subsequently activated (anti-CD3/CD28), and harvested after 24 hours. […] The progression through different blocks to HIV transcription was quantified by measuring the levels of initiated (TAR), 5′ elongated (LLTR), midtranscribed/unspliced (Pol), completed (PolyA), and multiply spliced (TatRev) HIV transcripts. The levels of those HIV transcripts were normalized to 1 μg of total cellular RNA (to normalize for the effect of the drug on global cellular transcription) and expressed as a percentage of the activated DMSO control.
Figure 1 Screening of candidate LPAs by measuring the change in multiply spliced HIV transcripts after activation. Each drug was tested in PBMCs from 2 ART-suppressed study participants (denoted in the legend by varying symbol shapes). PBMCs were aliquoted into wells at 6 × 10^6 cells/well. After activation, the cells were cultured with antiretrovirals in the presence of individual drugs in DMSO or DMSO alone as control. All conditions were tested in the presence of CD3/28 T cell–activating beads, except for the unactivated DMSO condition. (A) After 24 hours, the viability was measured by trypan blue staining and then normalized to the levels of the activated DMSO (% of activated DMSO). Bars indicate medians. (B) Total cellular RNA was extracted, and the levels of multiply spliced HIV transcripts (TatRev) were measured by RT-ddPCR, normalized to 1 μg of total cellular RNA, and expressed as a percentage of the activated DMSO control (% of activated DMSO). RT-dd, reverse transcription digital droplet; vRNA, viral RNA; HAT, histone acetyltransferase.
The ability of our candidate LPAs to inhibit HIV transcriptional progression after activation was examined in PBMCs from a minimum of 7 PWH per drug tested (Figure 3). PBMCs were cultured in the presence of individual drugs in DMSO or in DMSO alone as a control, subsequently activated (anti-CD3/CD28), and harvested after 24 hours.
Each drug was tested in PBMCs from 7 ART-suppressed study participants. The PBMCs were aliquoted into wells at 6 × 10^6 cells/well. After activation, the cells were cultured with antiretrovirals in the presence of individual drugs in DMSO or DMSO alone as control. All conditions were tested in the presence of CD3/28 T cell–activating beads, except for the unactivated DMSO condition. After 24 hours, total RNA was extracted, and the progression through different stages of HIV transcription was quantified by measuring the levels of initiated (TAR), 5′ elongated (LLTR), midtranscribed/unspliced (Pol), completed (PolyA), and multiply spliced (TatRev) HIV transcripts. (A) The levels of all HIV transcripts were normalized to 1 μg of total cellular RNA and expressed as a percentage of the activated DMSO control (% of activated DMSO). Medians are shown as well as the individual values per study participant in different colors. (B–D) The effect of each drug on HIV transcriptional progression after activation was analyzed by the ratio of one HIV transcript to another. Ratios are independent of HIV infection frequency or normalization to cell numbers. Shown are the proportion of (B) all HIV transcripts that were elongated (LLTR/TAR), (C) elongated HIV transcripts that were completed spliced (PolyA/LLTR), and (D) completed transcripts that were multiply spliced (TatRev/PolyA).

[2] = 2.5μM, 24 h after αCD3/28 activation, each column one participant
[3] = initial screening, 2 participants, 24 hours, Supplemental Figure 2

## CNc1ccc([N+](=O)[O-])c(Nc2ccc3[nH]ncc3c2)n1 [KRIBB11]
PBMCs; day 6, Figure 6A
  Total live cell numbers (proliferation) compared with activated DMSO (in words): did not change proliferation rates
PBMCs; participant 2027
  Fig 6B: total live cells relative to DMSO+CD3/28: 80
PBMCs; participant 2147a
  Fig 6B: total live cells relative to DMSO+CD3/28: 78.71
PBMCs; participant 2147b
  Fig 6B: total live cells relative to DMSO+CD3/28: 84.85
PBMCs; participant 2256
  Fig 6B: total live cells relative to DMSO+CD3/28: 100
PBMCs; participant 2461
  Fig 6B: total live cells relative to DMSO+CD3/28: 133.29
PBMCs; participant 2747
  Fig 6B: total live cells relative to DMSO+CD3/28: 114.29
PBMCs; study participant 150a, day 6
  Total number of live cells (Fig 6A): 109.33 % of activated DMSO
PBMCs; study participant 156, day 6
  Total number of live cells (Fig 6A): 86.05 % of activated DMSO
PBMCs; study participant 163, day 6
  Total number of live cells (Fig 6A): 93.17 % of activated DMSO
PBMCs; study participant 2027, day 6
  Total number of live cells (Fig 6A): 77.91 % of activated DMSO
PBMCs; study participant 2147a, day 6
  Total number of live cells (Fig 6A): 131.05 % of activated DMSO
PBMCs; study participant 2147b, day 6
  Total number of live cells (Fig 6A): 144.41 % of activated DMSO
PBMCs; study participant 2256, day 6
  Total number of live cells (Fig 6A): 80.69 % of activated DMSO
PBMCs; study participant 2461, day 6
  Total number of live cells (Fig 6A): 93.23 % of activated DMSO
PBMCs; study participant 2747, day 6
  Total number of live cells (Fig 6A): 107.08 % of activated DMSO
[1]; [2]
  LLTR HIV transcripts (DMSO+αCD3/28 = 100): 71.02 and 48.35 and 38.5 and 36.33 and 35.09 and 15.92 and 24.32
  Pol HIV transcripts (DMSO+αCD3/28 = 100): 19.01 and 13.73 and 14.61 and 76.94 and 12.5 and 1.36 and 0
  TAR HIV transcripts (DMSO+αCD3/28 = 100): 122.57 and 166.06 and 91.93 and 75.64
  TatRev HIV transcripts (DMSO+αCD3/28 = 100): 11.03 and 9.21 and 38.96 and 12.13 and 2.02 and 0 and 8.77
[1]; 24 hours, compared with activated DMSO, Figure 3B
  HIV transcriptional elongation, ratio LLTR/TAR: inhibited
[1]; 24 hours, compared with activated DMSO, Figure 3C
  HIV transcriptional completion, ratio PolyA/LLTR: reduced completion
[1]; initial screening, 2 participants, 24 hours
  Reduction of multiply spliced or completed HIV transcripts in drug screen (selection as candidate LPA): more than 50%
[1]; [3]
  Elongated (LLTR) HIV transcripts, median relative to activated DMSO, initial screening: 60%
  Midtranscribed (Pol) HIV transcripts, median relative to activated DMSO, initial screening: 16%
[1]; participant 2027
  Pol HIV transcripts (DMSO αCD3/28 = 100): 73.68
  PolyA HIV transcripts (DMSO αCD3/28 = 100): 106.67
  TatRev HIV transcripts (DMSO αCD3/28 = 100): 11.11
[1]; participant 2147a
  Pol HIV transcripts (DMSO αCD3/28 = 100): 33.33
  PolyA HIV transcripts (DMSO αCD3/28 = 100): 22.8
  TatRev HIV transcripts (DMSO αCD3/28 = 100): 46.99
[1]; participant 2256
  Pol HIV transcripts (DMSO αCD3/28 = 100): 169.23
  PolyA HIV transcripts (DMSO αCD3/28 = 100): 89.76
  TatRev HIV transcripts (DMSO αCD3/28 = 100): 84.19
[1]; participant 2461
  PolyA HIV transcripts (DMSO αCD3/28 = 100): 176.92
[1]; participant 2747
  Pol HIV transcripts (DMSO αCD3/28 = 100): 8.97
  PolyA HIV transcripts (DMSO αCD3/28 = 100): 19.67
  TatRev HIV transcripts (DMSO αCD3/28 = 100): 30
[1]; study participant 150a, 24 hours
  Multiply spliced HIV transcripts (TatRev) (Fig 1B): 11.03 % of activated DMSO
[1]; study participant 150a
  PolyA/LLTR: 0.3562
  TatRev/PolyA: 0.4361
  PolyA: 25.3
  TatRev: 11.03
[1]; study participant 152, 24 hours
  Multiply spliced HIV transcripts (TatRev) (Fig 1B): 9.21 % of activated DMSO
[1]; study participant 152
  PolyA/LLTR: 0.4136
  TatRev/PolyA: 0.4605
  PolyA: 20
  TatRev: 9.21
[1]; study participant 163
  PolyA/LLTR: 0.6494
  TatRev/PolyA: 1.558
  PolyA: 25
  TatRev: 38.96
[1]; study participant 1379
  LLTR/TAR: 0.1731
  PolyA/LLTR: 0.3046
  TatRev/PolyA: 0
  PolyA: 4.85
  TatRev: 0
[1]; study participant 2147b
  LLTR/TAR: 0.3199
  PolyA/LLTR: 0.5626
  TatRev/PolyA: 0.4866
  PolyA: 34.68
  TatRev: 12.13
[1]; study participant 2256
  LLTR/TAR: 0.2113
  PolyA/LLTR: 0.2703
  TatRev/PolyA: 0.2127
  PolyA: 9.49
  TatRev: 2.02
[1]; study participant 5557
  LLTR/TAR: 0.3215
  PolyA/LLTR: 0.6238
  TatRev/PolyA: 0.5784
  PolyA: 15.17
  TatRev: 8.77
